In PubChem BioAssay AID1117351:
Activity calls are given as the source filed them. No rule for the calls is given here.

These molecules were tested on HeLa cells, 4N DNA content increase (assay: HeLa 4N DNA content increase, dose response, cell-based, IC50 (AID 1117351)).

IC50	SMILES
> 10 µM (inactive)	CCCCCCCCCCCC(=O)[O][Sn]([CH2]CCC)([CH2]CCC)[O]C(=O)CCCCCCCCCCC
> 10 µM (inactive)	C[n+]1c2cc(N)ccc2cc2ccc(N)cc21 (tested in a mixture with another compound)
> 10 µM (inactive)	CCCCCCCCCCCCCC[N+](C)(C)C

SMILES	IC50
Cc1ccc([N+](=O)[O-])[c]2c1[O][Hg]2	> 10 µM (inactive)
